From US20230117034A1, “PYRAZOLOTRIAZINES” (Bayer Aktiengesellschaft, priority 2019, published 2023)

Tests used:
[1] = molecular target: T1, CDK9/CycT1 (Homo sapiens, UniProt P50750); assay: CDK9/CycT1 high ATP kinase assay (TR-FRET, 2 mM ATP); format: biochemical; settings: 2 mM ATP (high ATP); median; read-out: CDK9/CyclinT1, 2 mM ATP (high ATP), IC50 (median)
T1 construct: Recombinant full-length His-tagged human CDK9 and CycT1; purchased Life Technologies PV4131; host or cells: insect cells
How it was run: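 Full-length His-tagged human CDK9/CycT1 (insect cell, ~0.5 μg/mL) preincubated 15 min at 22 °C with compound in Tris pH 8.0, MgCl2, DTT buffer before reaction with biotinylated peptide substrate at high ATP (2 mM).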

[2] = molecular target: T2, CDK12 (nuclear staining in CAL-120 cells) (Homo sapiens, UniProt Q9NYV4); assay: CDK12 nuclear protein level: immunofluorescence/high content analysis (CAL-120); format: cell-based; settings: for DC50: CAL-120 cells, 24 h, immunofluorescence, 50% reduction of nuclear CDK12 staining intensity, median, read-out: CDK12 degradation IF, DC50- [mol/l] (median); for (IC50 CDK12 high ATP) to (Degradation DC50 CDK12) ratio: ratio of IC50 CDK12 high ATP kinase assay to DC50 CDK12 degradation (IF, CAL-120)
T2 construct: endogenous in cells; host or cells: CAL-120 human breast cancer cells (DSMZ ACC 459)
T2 sequence (Q9NYV4 whole entry): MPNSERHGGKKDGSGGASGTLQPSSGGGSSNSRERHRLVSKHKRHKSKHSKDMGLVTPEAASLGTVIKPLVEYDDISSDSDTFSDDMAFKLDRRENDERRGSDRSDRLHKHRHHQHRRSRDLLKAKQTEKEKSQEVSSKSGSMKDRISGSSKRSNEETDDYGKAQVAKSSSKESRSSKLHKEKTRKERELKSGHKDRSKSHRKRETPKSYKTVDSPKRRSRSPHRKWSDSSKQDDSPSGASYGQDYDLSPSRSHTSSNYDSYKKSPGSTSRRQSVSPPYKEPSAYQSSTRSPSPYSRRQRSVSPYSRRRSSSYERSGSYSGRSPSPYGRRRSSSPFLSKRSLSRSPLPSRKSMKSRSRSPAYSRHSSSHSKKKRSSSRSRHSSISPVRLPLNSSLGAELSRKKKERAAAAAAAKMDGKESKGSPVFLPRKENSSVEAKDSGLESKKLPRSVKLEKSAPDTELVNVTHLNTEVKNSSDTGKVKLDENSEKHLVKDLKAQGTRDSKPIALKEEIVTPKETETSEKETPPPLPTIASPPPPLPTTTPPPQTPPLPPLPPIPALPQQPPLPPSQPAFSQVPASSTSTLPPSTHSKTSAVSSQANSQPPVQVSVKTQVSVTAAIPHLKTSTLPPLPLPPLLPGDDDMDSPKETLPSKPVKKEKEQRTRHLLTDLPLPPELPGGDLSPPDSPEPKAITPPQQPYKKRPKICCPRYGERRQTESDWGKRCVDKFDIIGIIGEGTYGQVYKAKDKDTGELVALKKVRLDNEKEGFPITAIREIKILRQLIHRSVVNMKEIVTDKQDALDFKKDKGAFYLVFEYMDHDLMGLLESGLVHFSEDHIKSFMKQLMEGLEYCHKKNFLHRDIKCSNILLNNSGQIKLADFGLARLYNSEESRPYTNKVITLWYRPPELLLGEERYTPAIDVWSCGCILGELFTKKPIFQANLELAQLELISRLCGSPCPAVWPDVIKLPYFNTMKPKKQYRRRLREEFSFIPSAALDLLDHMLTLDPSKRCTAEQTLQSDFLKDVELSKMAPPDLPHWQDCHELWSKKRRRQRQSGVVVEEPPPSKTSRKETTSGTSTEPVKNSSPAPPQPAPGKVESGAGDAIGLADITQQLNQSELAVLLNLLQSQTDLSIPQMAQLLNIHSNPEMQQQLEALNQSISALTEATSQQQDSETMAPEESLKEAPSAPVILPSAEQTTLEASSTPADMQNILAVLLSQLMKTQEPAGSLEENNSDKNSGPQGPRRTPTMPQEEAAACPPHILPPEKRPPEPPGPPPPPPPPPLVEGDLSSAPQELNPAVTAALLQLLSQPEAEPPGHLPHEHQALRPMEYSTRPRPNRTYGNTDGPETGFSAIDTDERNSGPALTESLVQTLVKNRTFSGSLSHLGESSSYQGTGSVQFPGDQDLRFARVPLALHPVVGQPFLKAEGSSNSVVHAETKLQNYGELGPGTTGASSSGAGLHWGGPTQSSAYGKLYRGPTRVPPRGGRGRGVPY
T2 sequence (O75909 whole entry partner): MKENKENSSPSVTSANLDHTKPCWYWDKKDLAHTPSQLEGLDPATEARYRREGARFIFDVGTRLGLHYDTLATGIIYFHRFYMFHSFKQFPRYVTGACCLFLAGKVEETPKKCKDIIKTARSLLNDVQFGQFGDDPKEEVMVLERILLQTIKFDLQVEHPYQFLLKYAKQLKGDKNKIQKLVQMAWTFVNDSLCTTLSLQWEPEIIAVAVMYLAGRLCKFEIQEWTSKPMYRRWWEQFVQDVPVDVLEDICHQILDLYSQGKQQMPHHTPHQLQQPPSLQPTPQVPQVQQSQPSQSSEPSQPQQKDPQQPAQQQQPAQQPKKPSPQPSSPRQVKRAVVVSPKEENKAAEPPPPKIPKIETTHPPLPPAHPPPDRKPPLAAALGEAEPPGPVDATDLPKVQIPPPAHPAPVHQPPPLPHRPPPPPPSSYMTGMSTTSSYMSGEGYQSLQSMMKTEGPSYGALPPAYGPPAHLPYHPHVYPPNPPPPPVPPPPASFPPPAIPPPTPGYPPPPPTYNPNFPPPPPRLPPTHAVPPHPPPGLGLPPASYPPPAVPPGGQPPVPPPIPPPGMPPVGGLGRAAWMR
How it was run: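 CAL-120 cells were treated with compound for 24 h at 37 °C, fixed with PFA and immunostained for CDK12. Nuclear CDK12 intensity was quantified by automated image analysis and normalized to DMSO and control. DC50 is the concentration giving 50% reduction of nuclear staining.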

T1 sequence (P50750 whole entry): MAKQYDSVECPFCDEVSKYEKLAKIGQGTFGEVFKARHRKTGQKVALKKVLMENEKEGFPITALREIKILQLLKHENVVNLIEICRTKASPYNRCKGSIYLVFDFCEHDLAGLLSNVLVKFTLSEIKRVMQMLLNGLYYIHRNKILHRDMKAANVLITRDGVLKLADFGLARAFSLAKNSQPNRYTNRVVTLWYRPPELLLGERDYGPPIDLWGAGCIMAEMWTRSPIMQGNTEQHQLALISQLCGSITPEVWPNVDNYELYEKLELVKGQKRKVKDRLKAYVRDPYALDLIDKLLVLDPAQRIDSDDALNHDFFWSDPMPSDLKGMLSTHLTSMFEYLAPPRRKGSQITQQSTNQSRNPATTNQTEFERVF
T1 sequence (O60563 whole entry partner): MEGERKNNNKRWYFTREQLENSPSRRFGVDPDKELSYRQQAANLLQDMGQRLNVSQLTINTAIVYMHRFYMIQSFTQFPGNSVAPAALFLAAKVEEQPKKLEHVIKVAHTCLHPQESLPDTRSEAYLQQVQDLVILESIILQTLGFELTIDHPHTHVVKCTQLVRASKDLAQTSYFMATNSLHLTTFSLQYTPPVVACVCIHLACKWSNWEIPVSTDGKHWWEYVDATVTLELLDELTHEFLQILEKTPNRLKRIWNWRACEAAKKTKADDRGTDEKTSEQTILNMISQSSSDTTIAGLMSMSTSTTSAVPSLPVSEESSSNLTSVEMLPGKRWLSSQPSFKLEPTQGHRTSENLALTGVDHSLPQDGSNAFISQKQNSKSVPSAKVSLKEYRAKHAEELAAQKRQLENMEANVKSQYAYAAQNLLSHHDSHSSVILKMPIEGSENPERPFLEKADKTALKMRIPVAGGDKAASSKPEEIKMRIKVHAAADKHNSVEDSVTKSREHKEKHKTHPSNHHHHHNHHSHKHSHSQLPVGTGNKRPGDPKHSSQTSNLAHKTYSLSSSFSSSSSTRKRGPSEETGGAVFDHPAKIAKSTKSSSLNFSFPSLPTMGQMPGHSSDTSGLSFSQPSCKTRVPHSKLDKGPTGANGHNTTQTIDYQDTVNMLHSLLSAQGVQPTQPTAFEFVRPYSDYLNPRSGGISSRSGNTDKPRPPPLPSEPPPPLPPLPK

Row | Structure (SMILES) | IC50 [1] [nM] | DC50 [2] [nM] | (IC50 CDK12 high ATP) to (Degradation DC50 CDK12) ratio [2]
1 | CN(CC(C)(C)O)c1nc(NCc2nc3ccccc3[nH]2)n2ncc(Br)c2n1 [Example 238, 1-[(4-{[(1H-benzimidazol-2-yl)methyl]amino}-8-bromopyrazolo[1,5-a][1,3,5]triazin-2-yl)(methyl)amino]-2-methylpropan-2-ol] | > 18700 | 6.49 | 276
2 | CN1CC2CCC1CN2c1nc(NCc2nc3ccccc3[nH]2)n2ncc(Br)c2n1 (stereo not drawn) [Example 221, N-(1H-benzimidazol-2-ylmethyl)-8-bromo-2-(5-methyl-2,5-diazabicyclo[2.2.2]octan-2-yl)pyrazolo[1,5-a][1,3,5]triazin-4-amine] | > 20000 | 4.68 | 1704
3 | Cc1ccc2[nH]c(CNc3nc(N4C[C@@H](C)N[C@@H](C)C4)nc4c(Br)cnn34)nc2c1 [Example 209, 8-bromo-2-[(3R,5S)-3,5-dimethylpiperazin-1-yl]-N-[(5-methyl-1H-benzimidazol-2-yl)methyl]pyrazolo[1,5-a][1,3,5]triazin-4-amine] | > 20000 | 0.471 | 14455
4 | COc1ccc2[nH]c(CNc3nc(N4C[C@@H](C)N[C@@H](C)C4)nc4c(Br)cnn34)nc2c1 [Example 205, 8-bromo-2-[(3R,5S)-3,5-dimethylpiperazin-1-yl]-N-[(5-methoxy-1 H-benzimidazol-2-yl)methyl]pyrazolo[1,5-a][1,3,5]triazin-4-amine] | > 20000 | 0.506 | 15749
5 | CO[C@@H]1CCN(c2nc(NCc3nc4ccccc4[nH]3)n3ncc(Br)c3n2)C1 [Example 223, N-[(1H-benzimidazol-2-yl)methyl]-8-bromo-2-[(3R)-3-methoxypyrrolidin-1-yl]pyrazolo[1,5-a][1,3,5]triazin-4-amine] | > 20000 | 57.6 | >287
6 | Fc1ccc2[nH]c(CNc3nc(N4CCOCC4)nc4c(C5CC5)cnn34)nc2c1F [Example 172, 8-cyclopropyl-N-[(4,5-difluoro-1H-benzimidazol-2-yl)methyl]-2-(morpholin-4-yl)pyrazolo[1,5-a][1,3,5]triazin-4-amine] | > 20000 | 1.1 | 581
7 | CC1(O)CCN(c2nc(NCc3nc4ccccc4[nH]3)n3ncc(Br)c3n2)C1 (stereo not drawn) [Example 225, 1-[4-(1H-benzimidazol-2-ylmethylamino)-8-bromo-pyrazolo[1,5-a][1,3,5]triazin-2-yl]-3-methyl-pyrrolidin-3-ol] | > 20000 | 22.1 | 466
8 | OC1CCN(c2nc(NCc3nc4ccccc4[nH]3)n3ncc(Br)c3n2)CC1 [Example 17, 1-(4-{[(1H-benzimidazol-2-yl)methyl]amino}-8-bromopyrazolo[1,5-a][1,3,5]triazin-2-yl)piperidin-4-ol] | > 20000 | 5.98 | 957
9 | OC[C@@H]1CCCCN1c1nc(NCc2nc3c(F)cccc3[nH]2)n2ncc(C3CC3)c2n1 [Example 189, [(2S)-1-(8-cyclopropyl-4-{[(4-fluoro-1H-benzimidazol-2-yl)methyl]amino}pyrazolo[1,5-a][1,3,5]triazin-2-yl)piperidin-2-yl]methanol] | 2200 | 0.557 | 20
10 | CCNc1nc(NCc2nc3ccccc3[nH]2)n2ncc(Br)c2n1 [Example 227, N4-(1H-benzimidazol-2-ylmethyl)-8-bromo-N2-ethyl-pyrazolo[1,5-a][1,3,5]triazine-2,4-diamine] | > 20000 | 16.8 | 565
11 | COCCNc1nc(NCc2nc3ccccc3[nH]2)n2ncc(Br)c2n1 [Example 230, N4-(1H-benzimidazol-2-ylmethyl)-8-bromo-N2-(2-methoxyethyl)pyrazolo[1,5-a][1,3,5]triazine-2,4-diamine] | > 20000 | 66 | >303
12 | O=C1CN(c2nc(NCc3nc4ccccc4[nH]3)n3ncc(Br)c3n2)CCN1 [Example 167, 4-(4-{[(1H-benzimidazol-2-yl)methyl]amino}-8-bromopyrazolo[1,5-a][1,3,5]triazin-2-yl)piperazin-2-one] | > 20000 | 16.9 | 420
13 | O[C@H]1CCN(c2nc(NCc3nc4ccccc4[nH]3)n3ncc(Br)c3n2)C1 [Example 224, (3S)-1-(4-{[(1H-benzimidazol-2-yl)methyl]amino}-8-bromopyrazolo[1,5-a][1,3,5]triazin-2-yl)pyrrolidin-3-ol] | > 20000 | 38.4 | 407
14 | CN1C[C@@H]2C[C@H]1CN2c1nc(NCc2nc3ccccc3[nH]2)n2ncc(Br)c2n1 [Example 219, N-[(1H-benzimidazol-2-yl)methyl]-8-bromo-2-[(1S,4S)-5-methyl-2,5-diazabicyclo[2.2.1]heptan-2-yl]pyrazolo[1,5-a][1,3,5]triazin-4-amine] | > 20000 | 16.2 | >1232
15 | Fc1cccc2[nH]c(CNc3nc(N4CCOCC4)nc4c(C5CC5)cnn34)nc12 [Example 188, 8-cyclopropyl-N-[(4-fluoro-1H-benzimidazol-2-yl)methyl]-2-(morpholin-4-yl)pyrazolo[1,5-a][1,3,5]triazin-4-amine] | > 20000 | 1.26 | 460
16 | CN(CCO)c1nc(NCc2nc3ccccc3[nH]2)n2ncc(Br)c2n1 [Example 237, 2-[(4-{[(1H-benzimidazol-2-yl)methyl]amino}-8-bromopyrazolo[1,5-a][1,3,5]triazin-2-yl)(methyl)amino]ethan-1-ol] | > 20000 | 128 | 58
17 | Fc1ccc2[nH]c(CNc3nc(N4CCOCC4)nc4c(C5CC5)cnn34)nc2c1 [Example 181, 8-cyclopropyl-N-[(5-fluoro-1H-benzimidazol-2-yl)methyl]-2-(morpholin-4-yl)pyrazolo[1,5-a][1,3,5]triazin-4-amine] | > 20000 | 0.878 | 2179
18 | O[C@H]1C[C@@H](Nc2nc(NCc3nc4ccccc4[nH]3)n3ncc(Br)c3n2)C1 [Example 234, cis-3-[(4-{[(1H-benzimidazol-2-yl)methyl]amino}-8-bromopyrazolo[1,5-a][1,3,5]triazin-2-yl)amino]cyclobutan-1-ol] | > 20000 | 10.3 | 472
19 | Brc1cnn2c(NCc3nc4ccccc4[nH]3)nc(NCCN3CCCC3)nc12 [Example 235, N4-(1H-benzimidazol-2-ylmethyl)-8-bromo-N2-(2-pyrrolidin-1-ylethyl)pyrazolo[1,5-a][1,3,5]triazine-2,4-diamine] | > 20000 | 104 | >192
20 | Cc1ccc2[nH]c(CNc3nc(N4CCNCC4)nc4c(Br)cnn34)nc2c1 [Example 204, 8-bromo-N-[(5-methyl-1H-benzimidazol-2-yl)methyl]-2-(piperazin-1-yl)pyrazolo[1,5-a][1,3,5]triazin-4-amine] | > 20000 | 0.619 | 7019
